In ChEMBL document CHEMBL1201862, “PubChem BioAssay data set” (2004):
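Where inhibition never reached the appropriate level, the endpoint shown equals the highest concentration tested. Otherwise, values were interpolated linearly from a five-concentration, 48-hour dose response in 96-well plates. Abbreviation: GI50, concentration required for 50% inhibition of growth.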 Activity calls are given as the source filed them. Rule as the data show it: active = GI50 up to about 1.1 µM and inactive = higher.

Key:
Test in all cases: NCI tumour cell line growth inhibition, 48 h
HCT-116 = tested on: HCT-116
NCI-H522 = tested on: NCI-H522
HCC 2998 = tested on: HCC 2998
CCRF-CEM = tested on: CCRF-CEM
PC-3 = tested on: PC-3
SR = tested on: SR
KM12 = tested on: KM12
OVCAR-5 = tested on: OVCAR-5
OVCAR-3 = tested on: OVCAR-3
UO-31 = tested on: UO-31
HCT-15 = tested on: HCT-15
DU-145 = tested on: DU-145
SK-MEL-2 = tested on: SK-MEL-2
SF-539 = tested on: SF-539
Malme-3M = tested on: Malme-3M
U-251 = tested on: U-251
HOP-92 = tested on: HOP-92
M14 = tested on: M14
HL-60 = tested on: HL-60
SK-OV-3 = tested on: SK-OV-3
SF-268 = tested on: SF-268
HOP-62 = tested on: HOP-62
SW-620 = tested on: SW-620
SNB-75 = tested on: SNB-75
COLO 205 = tested on: COLO 205
IGROV-1 = tested on: IGROV-1
UACC-257 = tested on: UACC-257
MOLT-4 = tested on: MOLT-4
K562 = tested on: K562
LOX IMVI = tested on: LOX IMVI
NCI-H23 = tested on: NCI-H23
UACC-62 = tested on: UACC-62
SF-295 = tested on: SF-295
EKVX = tested on: EKVX
NCI/ADR-RES = tested on: NCI/ADR-RES
SN12C = tested on: SN12C
A498 = tested on: A498
SK-MEL-28 = tested on: SK-MEL-28
OVCAR-4 = tested on: OVCAR-4
NCI-H226 = tested on: NCI-H226
A549 = tested on: A549
RPMI-8226 = tested on: RPMI-8226
MDA-MB-231 = tested on: MDA-MB-231
HT-29 = tested on: HT-29
CAKI-1 = tested on: CAKI-1
MCF7 = tested on: MCF7
MDA-MB-435 = tested on: MDA-MB-435
SNB-19 = tested on: SNB-19
T47D = tested on: T47D
SK-MEL-5 = tested on: SK-MEL-5
ACHN = tested on: ACHN
MDA-N = tested on: MDA-N
786-0 = tested on: 786-0
OVCAR-8 = tested on: OVCAR-8
TK-10 = tested on: TK-10
RXF 393 = tested on: RXF 393
Hs-578T = tested on: Hs-578T

Measured: GI50

Oc1ccc(/C=N/NC(=S)Nc2cccnc2)nc1
5.27 µM: HCT-15
inactive: HCT-116 4.49 µM | NCI-H522 1.97 µM | HCC 2998 > 51.1 µM | CCRF-CEM 3.27 µM | PC-3 > 22 µM | KM12 6.71 µM | OVCAR-5 40.3 µM | UO-31 2.78 µM | DU-145 3.72 µM | SK-MEL-2 7.08 µM | SF-539 4.49 µM | Malme-3M 2.07 µM | U-251 6.22 µM | HOP-92 5.38 µM | M14 6.1 µM | HL-60 3.76 µM | SK-OV-3 8.99 µM | SF-268 1.39 µM | HOP-62 12 µM | SW-620 4.82 µM | SNB-75 19.6 µM | COLO 205 3.98 µM | IGROV-1 14.7 µM | UACC-257 13.7 µM | MOLT-4 2.8 µM | K562 3.99 µM | LOX IMVI 3.26 µM | NCI-H23 8.15 µM | UACC-62 6.97 µM | SF-295 19.9 µM | EKVX 12.6 µM | NCI/ADR-RES 2.46 µM | SN12C 6.93 µM | A498 33.7 µM | SK-MEL-28 6.18 µM | OVCAR-4 > 76.6 µM | NCI-H226 33.3 µM | A549 38.3 µM | RPMI-8226 16.7 µM | MDA-MB-231 2.32 µM | HT-29 5.33 µM | CAKI-1 20.7 µM | MCF7 7.89 µM | MDA-MB-435 5.9 µM | SNB-19 22.7 µM | T47D 8.69 µM | SK-MEL-5 9.59 µM | ACHN 4.76 µM | MDA-N 13.4 µM | 786-0 8.43 µM | OVCAR-8 2.79 µM
active: SR 0.134 µM | OVCAR-3 1.07 µM

c1ccc(COC[C@H]2O[C@@H](c3ccccc3)C[C@@H](OCc3ccccc3)C2OCc2ccccc2)cc1 (stereo not given in full)
inactive: HCC 2998 > 10 µM | CCRF-CEM > 10 µM | PC-3 > 10 µM | SR > 10 µM | KM12 > 10 µM | DU-145 > 10 µM | Malme-3M > 10 µM | M14 > 10 µM | SK-OV-3 > 10 µM | SF-268 > 10 µM | HOP-62 > 10 µM | SW-620 > 10 µM | TK-10 > 10 µM | SNB-75 > 10 µM | COLO 205 > 10 µM | IGROV-1 > 10 µM | MOLT-4 > 10 µM | RXF 393 > 10 µM | NCI-H23 > 10 µM | UACC-62 > 10 µM | SF-295 > 10 µM | EKVX > 10 µM | SN12C > 10 µM | SK-MEL-28 > 10 µM | A549 > 10 µM | RPMI-8226 > 10 µM | MDA-MB-231 > 10 µM | CAKI-1 > 10 µM | MCF7 > 10 µM | T47D > 10 µM | SK-MEL-5 > 10 µM | MDA-N > 10 µM | 786-0 > 10 µM | OVCAR-8 > 10 µM
> 10 µM: HCT-15

Cc1cccc(C(O)c2ccncc2)c1O (stereo not given)
> 100 µM: HCT-15
inactive: HCT-116 > 100 µM | NCI-H522 > 100 µM | HCC 2998 > 100 µM | CCRF-CEM > 100 µM | PC-3 > 100 µM | KM12 > 100 µM | OVCAR-3 > 100 µM | UO-31 > 100 µM | DU-145 > 100 µM | SF-539 > 100 µM | U-251 > 100 µM | M14 > 100 µM | HL-60 > 100 µM | SF-268 > 100 µM | HOP-62 > 100 µM | SNB-75 76.6 µM | UACC-257 > 100 µM | MOLT-4 > 100 µM | RXF 393 91.6 µM | K562 > 100 µM | LOX IMVI > 100 µM | NCI-H23 > 100 µM | UACC-62 25.8 µM | SF-295 > 100 µM | EKVX > 100 µM | NCI/ADR-RES > 100 µM | SN12C > 100 µM | NCI-H226 > 100 µM | A549 > 100 µM | Hs-578T > 100 µM | SNB-19 > 100 µM | T47D 12.6 µM | SK-MEL-5 > 100 µM | ACHN > 100 µM | OVCAR-8 > 100 µM
